# Reference: US8420119B2, “Drug composition for treating tumor with polymeric micelle encapsulating anti-neoplastic” (Industrial Technology Research Institute, priority 2009, dated 2013)
# What was measured:
# [1] = Direct dilution test (remained lactone form); type: physicochemical; settings: PBS pH 7.4, 37° C.
# Method: A 150 μL solution of a pharmaceutical composition in accordance with the present disclosure, which was prepared according to the method as set forth above, was mixed with 1350 μL of PBS (pH 7.4), and then incubated at 37° C. After 1, 2, 4, and 8 hours of incubation, 10 μL incubated solutions were taken respectively, and each was mixed with 990 μL of methanol. The quantity of lactone form CPT or SN38 in the mixtures was determined by HPLC. A 150 μL CPT containing DMSO solution (CPT-DMSO) was used as a control.
# [2] = In vivo kinetic test of CPT; parameters: species or system SD mice; settings: SD, mouse, plasma
# Method: The concentrations of lactone form CPT in bloods over the time were then determined by HPLC.
# (§1) T1/2 (hr), AUCINF(hr*ng/ml), CL(mL/hr/kg), and Vss (mL/kg) in Table 2 represent half-life time, area under the curve to infinity, clearance, and volume of distribution at steady state, and the units thereof, respectively. The n represents sample number. These parameters can be measured and/or calculated according to the techniques known in the art.
# [3] = Release test using dialysis bag; type: physicochemical; settings: dialysis against PBS pH 7.4, 37° C.
# Method: A 50 μL solution of a pharmaceutical composition, which was prepared according to the method as set forth above, was added into a dialysis bag having a molecular weight cutoff of about 3,500 Daltons, and then was dialyzed against a 50 ml phosphate buffered saline (PBS) (pH 7.4) at 37° C. After 1, 2, 4, and 8 hours of dialysis, 250 μL out-of-bag buffers were taken respectively, and then each was then mixed with 750 μL methanol (in 0.6N HCl). The quantity of each drug, which was released from the polymeric micelle and then dialyzed into the out-of-bag buffer, was determined by HPLC. A 50 μL CPT containing DMSO solution (CPT-DMSO) was used as a control.
# [4] = tested on: SK-HEP-1; assay: MTT assay SK-HEP-1; type: cell-based, human; settings: Liver, SK-HEP-1, 72 hours
# Method: (§2) Various human cancer lines, such as A549, AS2, and H460, were implanted onto multi-well plates and Dulbecco's Modified Eagle Media (high glucose) with 10% of fetal bovine serum and 1% of P/S being added to each well. […] Then a 20 μL of 0.5 mg/ml MTT (3-(4,5-dimethylthiazol-2-yl)-2,5-diphenyltetrazolium bromide) solution was added to each well to start the reaction. After 2 hours, the suspension of each well was removed and DMSO was added into the well to dissolve formazan, which was formed during the reaction. The living cell concentration was then obtained by analyzing the OD570 and OD600 data of each well.
# [5] = In vivo kinetic test of SN38; parameters: species or system SD mice; settings: for lactone form SN38 in plasma: 4 mg/kg SN38 vein injection
# Method: The concentrations of lactone form SN38 in bloods over the time were then determined by HPLC.
# as §1, with “Table 7” for “Table 2”, “time, […],” for “time,”
# [6] = tested on: AS2; assay: MTT assay AS2; type: cell-based, human; settings: Lung, AS2, 72 hours
# Method: as §2
# [7] = tested on: PC-3; assay: MTT assay PC-3; type: cell-based, human; settings: Prostate, PC-3, 72 hours
# Method: as §2
# [8] = tested on: OVCAR-3; assay: MTT assay OVCAR-3; type: cell-based, human; settings: Ovarian, OVCAR-3, 72 hours
# Method: as §2
# [9] = tested on: HT29; assay: MTT assay HT29; type: cell-based, human; settings: Colorectal, HT29, 72 hours
# Method: as §2
# [10] = tested on: hepG2/C3A; assay: MTT assay hepG2/C3A; type: cell-based, human; settings: Liver, 72 hours
# Method: as §2
# [11] = tested on: MCF-7; assay: MTT assay MCF-7; type: cell-based, human; settings: Breast, MCF-7, 72 hours
# Method: as §2
# [12] = tested on: AGS; assay: MTT assay AGS; type: cell-based, human; settings: Stomach, 72 hours
# Method: as §2
# [13] = tested on: RPMI2650; assay: MTT assay RPMI2650; type: cell-based, human; settings: Nasalseptum, RPMI2650, 72 hours
# Method: as §2
# [14] = tested on: SCC-25; assay: MTT assay SCC-25; type: cell-based, human; settings: Tongue, SCC-25, 72 hours
# Method: as §2
# [15] = tested on: U-87 MG; assay: MTT assay U-87 MG; type: cell-based, human; settings: Brain, 72 hours
# Method: as §2
# [16] = tested on: A549; assay: MTT assay A549; type: cell-based, human; settings: Lung, A549, 72 hours
# Method: as §2
# [17] = tested on: H460; assay: MTT assay H460; type: cell-based, human; settings: Lung, H460, 72 hours
# Method: as §2
# [18] = tested on: Colo 205; assay: MTT assay Colo 205; type: cell-based, human; settings: Colorectal, Colo 205, 72 hours
# Method: as §2
# [19] = tested on: 5637; assay: MTT assay 5637; type: cell-based, human; settings: Bladder, 5637, 72 hours
# Method: as §2
# [20] = iv, lactone form CPT, 1 mg/kg vein injection
# [21] = plasma SN38, 4 mg/kg vein injection
smiles,measurement,setting,value
"CC[C@@]1(O)C(=O)OCc2c1cc1n(c2=O)Cc2cc3ccccc3nc2-1 [CPT-DMSO, camptothecin]",percentage of remained lactone form CPT and SN38,[1]; 2 hours,26.4%
same,percentage of remained lactone form CPT and SN38,[1]; 4 hours,18.1%
same,concentration at 0.25 h,"[2]; intravenous, 0.25 hour, 1 mg/kg CPT vein injection, read-out: lactone form CPT in plasma",19.4 ng/mL
same,concentration at 0.5 h,"[2]; intravenous, 0.5 hour, 1 mg/kg CPT vein injection, read-out: lactone form CPT in plasma",11.6 ng/mL
same,concentration at 1 h,"[2]; intravenous, 1 hour, 1 mg/kg CPT vein injection, read-out: lactone form CPT in plasma",3.1 ng/mL
same,concentration at 2 h,"[2]; intravenous, 2 hours, 1 mg/kg CPT vein injection, read-out: lactone form CPT in plasma",0.3 ng/mL
same,AUC(0-inf),[2]; [20],16 ± 6 ng·h/mL
same,clearance,[2]; [20],1160 mL/min/kg
same,half-life,[2]; [20],15 ± 6 min
same,Vd,"[2]; iv, lactone form CPT, 1 mg/kg vein injection, read-out: Vss",23.9 ± 6.2 L/kg
same,percentage of released CPT/SN38,[3]; 1 hour,48.2%
same,percentage of released CPT/SN38,[3]; 2 hours,73.9%
same,percentage of released CPT/SN38,[3]; 4 hours,87.2%
"CCc1c2c(nc3ccc(O)cc13)-c1cc3c(c(=O)n1C2)COC(=O)[C@]3(O)CC [SN38, 7-ethyl-10-hydroxycamptothecin]",IC50,[4],15.21 ± 1.33 ng/mL
same,lactone form SN38 in plasma,[5]; 0.1 Hour(s),710.8 ng/mL
same,lactone form SN38 in plasma,[5]; 0.2 Hour(s),505.3 ng/mL
same,lactone form SN38 in plasma,[5]; 0.3 Hour(s),265.3 ng/mL
same,lactone form SN38 in plasma,[5]; 0.500 Hour(s),143.4 ng/mL
same,lactone form SN38 in plasma,[5]; 1.0 Hour(s),32.3 ng/mL
same,lactone form SN38 in plasma,[5]; 2.0 Day(s),12.5 ng/mL
same,lactone form SN38 in plasma,[5]; 4.0 Day(s),9.0 ng/mL
same,lactone form SN38 in plasma,[5]; 8.0 Day(s),7.3 ng/mL
same,lactone form SN38 in plasma,[5]; 24.0 Day(s),1.0 ng/mL
same,AUCINF,[5]; [21],417 ng·h/mL
same,CL,[5]; [21],2490 mL/h/kg
same,T1/2,[5]; [21],6.2 h
same,Vss,[5]; [21],34300 mL/kg
same,IC50,[6],1.76 ± 0.23 ng/mL
same,IC50,[7],95.9 ± 21.27 ng/mL
same,IC50,[8],22.73 ± 2.14 ng/mL
same,IC50,[9],3.40 ng/mL
same,IC50,[10],28.70 ± 9.20 ng/mL
same,IC50,[11],60.93 ± 48.86 ng/mL
same,IC50,[12],40.22 ± 14.24 ng/mL
same,IC50,[13],0.97 ± 0.07 ng/mL
same,IC50,[14],19.71 ± 11.28 ng/mL
same,IC50,[15],10.22 ± 2.60 ng/mL
same,IC50,[16],13.87 ± 1.23 ng/mL
same,IC50,[17],3.18 ± 0.26 ng/mL
same,IC50,[18],5.63 ± 0.96 ng/mL
same,IC50,[19],0.36 ± 0.03 ng/mL
